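Dose response: 5 concentrations. Exposure: 48 h. Format: 96-well plates. Endpoint: linear interpolation; highest concentration if not reached. Abbreviation: GI50, concentration required for 50% inhibition of growth.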 Calls of active or inactive are those of the source. No stated cut-off is given here; in the data, active = GI50 up to about 1.1 µM and inactive = higher.
What was measured:
Assay in all cases: NCI tumour cell line growth inhibition, 48 h
[1] = tested on: HOP-18
[2] = tested on: XF498
[3] = tested on: SNB-78
[4] = tested on: M19-MEL
[5] = tested on: KM-20L2
[6] = tested on: LXFL 529
[7] = tested on: DLD-1
[8] = tested on: DMS-273
[9] = tested on: RXF 631

Measured: GI50

Cc1cn(C2CC(n3cncn3)C(C(C)O)O2)c(=O)[nH]c1=O (centres undefined)
inactive: [1] > 100 µM | [2] > 100 µM | [3] > 100 µM | [4] > 100 µM | [5] > 100 µM | [6] > 100 µM | [7] > 100 µM | [8] > 100 µM

CC(=O)Oc1cc2c(=O)oc3c(OC(C)=O)c(OC(C)=O)c(OC(C)=O)c4c(=O)oc(c1OC(C)=O)c2c34
inactive: [1] 32.1 µM | [2] 32.5 µM | [3] 39.4 µM | [4] 17.9 µM | [5] 35.3 µM | [6] > 100 µM | [9] 25.4 µM | [7] > 100 µM | [8] > 100 µM

COC1=CC(=O)C2C(C1=O)C(c1ccc(Cl)cc1)[C@@H]2C (some centres undefined)
inactive: [1] 12.2 µM | [2] 18.3 µM | [3] 36.8 µM | [4] 33.7 µM | [5] 51.1 µM | [6] 17.5 µM | [7] 25.9 µM | [8] 41 µM

C/C(CN1C(=O)c2ccccc2C1=O)=N\NS(C)(=O)=O
inactive: [1] > 100 µM | [2] > 100 µM | [3] > 100 µM | [4] > 100 µM | [5] > 100 µM | [6] > 100 µM | [7] > 100 µM | [8] > 100 µM

COc1ccc([C@H]2CC(=O)N3CCCC3N2)cc1 (some centres undefined)
inactive: [1] 43 µM | [2] > 100 µM | [3] > 100 µM | [4] > 100 µM | [5] > 100 µM | [6] > 100 µM | [7] > 100 µM | [8] > 100 µM

COC(OC)c1cccc2c1C1(O)CCC3(CC21)OCCCCO3 (centres undefined)
inactive: [1] > 100 µM | [3] > 100 µM | [4] > 100 µM | [5] > 100 µM | [6] > 100 µM | [7] > 100 µM | [8] > 100 µM

C[N+](C)=c1nc(N2CCc3ccccc3C2)ss1.[O-][Cl+3]([O-])([O-])[O-]
inactive: [1] > 100 µM | [3] > 100 µM | [4] > 100 µM | [5] > 100 µM | [6] 69.3 µM | [9] > 100 µM | [7] 90.4 µM | [8] > 100 µM

COc1ccc(/C=C\c2cc(OC)c(OC(C)=O)c(OC)c2)cc1
inactive: [2] 30.3 µM | [3] 25.5 µM | [4] 8.91 µM | [5] 29.5 µM | [6] 19.7 µM | [9] 23.5 µM | [7] 14.2 µM | [8] 5.31 µM

O=C(O)CCSC(=O)Nc1cccc2ccccc12
inactive: [1] > 100 µM | [2] > 100 µM | [3] > 100 µM | [4] > 100 µM | [5] > 100 µM | [6] > 100 µM | [9] > 100 µM | [7] > 100 µM | [8] > 100 µM

O=C(O)CCNS(=O)(=O)c1ccc([N+](=O)[O-])cc1
inactive: [1] > 100 µM | [2] > 100 µM | [4] > 100 µM | [5] > 100 µM | [6] > 100 µM | [9] > 100 µM | [7] > 100 µM | [8] > 100 µM

C=CCC1([C@H](C)[C@@H](OC(C)=O)c2cc(OC)c(OC)c(OC)c2)C[C@@H](OC)CCC1=O (some centres undefined)
inactive: [2] 17.9 µM | [4] 15.6 µM | [5] 12 µM | [6] 14.3 µM | [7] 16.2 µM

COC(=O)C1CC(C(=O)OC)c2nc3cc([N+](=O)[O-])ccc3nc21 (centres undefined)
inactive: [1] > 100 µM | [2] > 96.6 µM | [3] > 100 µM | [4] 61 µM | [5] 63.7 µM | [6] 36.9 µM | [9] > 73.3 µM | [7] 31 µM | [8] 44.5 µM

CC1=C(C#N)C(N)=C2C(C)=C(C#N)C(N)=C12
inactive: [2] > 100 µM | [3] > 100 µM | [4] > 100 µM | [5] > 100 µM | [6] > 100 µM | [7] > 100 µM | [8] > 100 µM

CC(C)(C)NN=C1C(C)(C)C(=NNC(C)(C)C)C1(C)C
inactive: [2] > 100 µM | [3] > 100 µM | [4] > 100 µM | [5] > 100 µM | [6] > 100 µM | [7] > 100 µM | [8] > 100 µM

Cn1cnc([N+](=O)[O-])c1Sc1nc2cccnc2[nH]1
inactive: [1] 70.1 µM | [2] 45.8 µM | [3] > 100 µM | [5] > 100 µM | [6] 39.2 µM | [9] 1.73 µM | [7] 25.6 µM | [8] 1.61 µM

O=C(c1ccccc1)C(c1ccccc1)C1(O)C(=O)Nc2c(Cl)ccc(Cl)c21 (centres undefined)
inactive: [1] 24.2 µM | [3] 25.5 µM | [5] 34.2 µM | [6] 17.2 µM | [7] 18.2 µM | [8] 14.4 µM

O=C(c1ccccc1)N1CCc2c([nH]c3ccccc23)C1
inactive: [1] 52.6 µM | [2] 20.8 µM | [4] 36.8 µM | [5] 54.1 µM | [6] 36.4 µM | [9] > 100 µM | [7] 64.7 µM | [8] 30.7 µM

Oc1ncnc2c1nnn2CCCCCCCCCCCCn1nnc2c(O)ncnc21
inactive: [1] 24.2 µM | [3] 19.2 µM | [4] > 100 µM | [5] > 100 µM | [6] 33.6 µM | [7] > 91.2 µM | [8] 27.5 µM

Nc1ccc(C(=O)N/C(=C\c2cccc([N+](=O)[O-])c2)c2nc3c4c(ccc3[nH]2)C(=O)c2ccccc2C4=O)cc1
inactive: [1] 11 µM | [2] > 100 µM | [3] > 100 µM | [4] > 100 µM | [5] > 100 µM | [6] 16.5 µM | [9] 29.9 µM | [7] 11.2 µM | [8] 27.5 µM

CCn1c2c(n(CC)c1=S)-c1c(n(CC)c(=S)n1CC)SSSS2
inactive: [1] 8.85 µM | [2] 1.52 µM | [3] 11.4 µM | [4] 7.78 µM | [5] 11.6 µM | [6] 2.1 µM | [9] 15.3 µM | [7] 1.63 µM | [8] 17.5 µM

C=C(C)C1CCC2(C)CC1c1c(c(C)cc3c1[nH]c1ccccc13)O2 (centres undefined)
inactive: [2] > 25 µM | [4] > 25 µM | [5] > 25 µM | [6] > 25 µM | [7] > 25 µM | [8] > 25 µM

CCO/C=C\C12CCCC1NC(c1ccccc1)(c1ccccc1)O2 (centres undefined)
inactive: [3] 54.8 µM | [4] 24.7 µM | [5] 23.1 µM | [6] 28.1 µM | [7] 32.3 µM | [8] 32.7 µM

Brc1ccc2c(c1)C1(c3cc(Br)ccc3-2)c2cc(Br)ccc2-c2ccc(Br)cc21
inactive: [1] > 100 µM | [2] > 100 µM | [3] > 100 µM | [4] > 100 µM | [5] > 100 µM | [6] > 100 µM | [9] > 100 µM | [7] > 100 µM | [8] > 100 µM

N/C(=N\N=C=C1C(=O)Nc2ccc(F)cc21)NO
inactive: [2] > 100 µM | [3] > 100 µM | [4] > 100 µM | [6] > 100 µM | [9] > 100 µM | [7] > 100 µM | [8] > 100 µM

Source: ChEMBL document CHEMBL1201862, “PubChem BioAssay data set” (2004)
